Data on 19 molecules can be found in ChEMBL document CHEMBL1629661, “Carbapenem resistance among Pseudomonas aeruginosa strains from India: evidence for nationwide endemicity of multiple metallo-beta-lactamase clones (VIM-2, -5, -6, and -11 and the newly characterized VIM-18)” (2009).

Values after ≈ are worked out from the molar mass of the structure shown.

What all share (type): functional
Assay [1] relates to Escherichia coli. Briefly: Antimicrobial activity against Escherichia coli harboring plasmid pPCRScript by Etest.
In assay [2] the test system is Escherichia coli. Description: Antimicrobial activity against Escherichia coli harboring beta-lactamase VIM-18 by Etest.
The test system of assay [3] is Escherichia coli. Description: Antimicrobial activity against Escherichia coli harboring beta-lactamase VIM-2 by Etest.
In assay [4] the test system is Escherichia coli. Briefly: Ratio of MIC for Escherichia coli harboring beta-lactamase VIM-2 to MIC for Escherichia coli harboring beta-lactamase VIM-18.
In assay [5] the test system is Pseudomonas aeruginosa. Briefly: Antimicrobial activity against Pseudomonas aeruginosa isolate 243-31C expressing beta-lactamase VIM-18 isolated from sputum of patient by broth microdilution method. On the technique in general: Broth dilution looks for growth in wells or tubes with falling amounts of substance.
The subject of assay [6] is Pseudomonas aeruginosa. Briefly: Antimicrobial activity against Pseudomonas aeruginosa isolate 243-31C expressing beta-lactamase VIM-18 isolated from sputum of patient by broth microdilution method in presence of beta-lactamase inhibitor Tazobactam.

For orientation: MIC means the smallest concentration in the dilution series that meets the test's criterion for growth inhibition. On to `C[C@@H](O)[C@H]1C(=O)N2C(C(=O)O)=C(S[C@@H]3CN[C@H](C(=O)Nc4cccc(C(=O)O)c4)C3)[C@H](C)[C@H]12`, for which the MIC in assay [1] was 0.006 µg/mL (≈ 0.0126 µM); in assay [2], 0.016 µg/mL (≈ 0.0336 µM); in assay [3] it was 0.25 µg/mL (≈ 0.526 µM); in assay [5], > 8 µg/mL. Besides, in assay [4], the Ratio is reported as 9.
For the molecule `CO/N=C(\C(=O)N[C@@H]1C(=O)N2C(C(=O)[O-])=C(C[N+]3(C)CCCC3)CS[C@H]12)c1csc(N)n1`, the figures for the MIC in assay [1], in assay [3] and in assay [5] were 0.032 µg/mL (≈ 0.0666 µM), 0.5 µg/mL (≈ 1.04 µM) and > 16 µg/mL, respectively.
Consider `NCC[C@H](O)C(=O)N[C@@H]1C[C@H](N)[C@@H](O[C@H]2O[C@H](CN)[C@@H](O)[C@H](O)[C@H]2O)[C@H](O)[C@H]1O[C@H]1O[C@H](CO)[C@@H](O)[C@H](N)[C@H]1O` [AMIKACIN], for which the MIC in assay [5] was > 32 µg/mL.
Consider `CC1(C)S[C@@H]2[C@H](NC(=O)[C@H](N)c3ccccc3)C(=O)N2[C@H]1C(=O)O` [AMPICILLIN], for which the MIC in assay [1] is 4 µg/mL (≈ 11.4 µM); in assay [2], 64 µg/mL (≈ 183 µM); in assay [3], > 256 µg/mL; in assay [5] it was > 16 µg/mL.
For the molecule `C[C@H]1[C@H](NC(=O)/C(=N\OC(C)(C)C(=O)O)c2csc(N)n2)C(=O)N1S(=O)(=O)O` [AZTREONAM], the MIC in assay [2] came out at 0.032 µg/mL (≈ 0.0735 µM); in assay [3], 0.032 µg/mL (≈ 0.0735 µM); in assay [5] it was 16 µg/mL (≈ 36.7 µM).
As to `Cc1nnc(SCC2=C(C(=O)O)N3C(=O)[C@@H](NC(=O)Cn4cnnn4)[C@H]3SC2)s1` [CEFAZOLIN], the MIC is 2 µg/mL (≈ 4.4 µM) in assay [1], 32 µg/mL (≈ 70.4 µM) in assay [2], > 256 µg/mL in assay [3] and > 16 µg/mL in assay [5]. Also, the Ratio in assay [4] was 4.
Regarding `CO/N=C(\C(=O)N[C@@H]1C(=O)N2C(C(=O)O)=C(COC(C)=O)CS[C@H]12)c1csc(N)n1` [CEFOTAXIME], the MIC was 0.064 µg/mL (≈ 0.141 µM) in assay [1], 2 µg/mL (≈ 4.39 µM) in assay [2] and 4 µg/mL (≈ 8.78 µM) in assay [3].
Consider `CO[C@@]1(NC(=O)Cc2cccs2)C(=O)N2C(C(=O)O)=C(COC(N)=O)CS[C@@H]21` [CEFOXITIN], for which the MIC in assay [1] was 4 µg/mL (≈ 9.36 µM); in assay [2] it was 8 µg/mL (≈ 18.7 µM); in assay [3], > 256 µg/mL; in assay [5], > 16 µg/mL. The Ratio in assay [4] is recorded as >6.
Regarding `CC(C)(O/N=C(\C(=O)N[C@@H]1C(=O)N2C(C(=O)[O-])=C(C[n+]3ccccc3)CS[C@H]12)c1csc(N)n1)C(=O)O` [CEFTAZIDIME], the MIC in assay [1] was 0.125 µg/mL (≈ 0.229 µM); in assay [2], 16 µg/mL (≈ 29.3 µM); in assay [3], 4 µg/mL (≈ 7.32 µM); in assay [5] it was > 16 µg/mL.
On to `CO/N=C(\C(=O)N[C@@H]1C(=O)N2C(C(=O)O)=C(CSc3nc(=O)c(O)nn3C)CS[C@H]12)c1csc(N)n1` [CEFTRIAXONE], for which the minimum inhibitory concentration (MIC) in assay [5] is > 32 µg/mL.
In assay [5], `O=C(O)c1cn(C2CC2)c2cc(N3CCNCC3)c(F)cc2c1=O` [CIPROFLOXACIN] registered an MIC of 0.06 µg/mL (≈ 0.181 µM).
Same read-out and setting: with `C[C@@H](O)[C@H]1C(=O)N2C(C(=O)O)=C(S[C@@H]3CN[C@H](CNS(N)(=O)=O)C3)[C@H](C)[C@H]12` [DORIPENEM] the figure was 4 µg/mL (≈ 9.51 µM).
With `C[C@@H](O)[C@H]1C(=O)N2C(C(=O)O)=C(SCCNC=N)C[C@H]12` [IMIPENEM ANHYDROUS], the values for the MIC in assay [3] and in assay [5] were 0.5 µg/mL (≈ 1.67 µM) and 8 µg/mL (≈ 26.7 µM), respectively.
As for `C[C@@H](O)[C@H]1C(=O)N2C(C(=O)O)=C(S[C@@H]3CN[C@H](C(=O)N(C)C)C3)[C@H](C)[C@H]12` [MEROPENEM], the MIC in assay [1] worked out at 0.032 µg/mL (≈ 0.0834 µM); in assay [2], 0.064 µg/mL (≈ 0.167 µM); in assay [3] it was 0.125 µg/mL (≈ 0.326 µM); in assay [5], 8 µg/mL (≈ 20.9 µM).
In the case of `CCN1CCN(C(=O)N[C@@H](C(=O)N[C@@H]2C(=O)N3[C@@H]2SC(C)(C)[C@@H]3C(=O)O)c2ccccc2)C(=O)C1=O` [PIPERACILLIN], the MIC in assay [1] was 2 µg/mL (≈ 3.86 µM); in assay [2] it was 8 µg/mL (≈ 15.5 µM); in assay [3] it was 4 µg/mL (≈ 7.73 µM); in assay [6] it was > 64 µg/mL; in assay [5], > 64 µg/mL.
Regarding `CN(C)[C@@H]1C(O)=C(C(N)=O)C(=O)[C@@]2(O)C(O)=C3C(=O)c4c(O)cccc4[C@@](C)(O)[C@H]3C[C@@H]12` [TETRACYCLINE], the MIC in assay [5] was > 8 µg/mL.
On the same count and under the same terms, for `NC[C@H]1O[C@H](O[C@H]2[C@H](O)[C@@H](O[C@H]3O[C@H](CO)[C@@H](O)[C@H](N)[C@H]3O)[C@H](N)C[C@@H]2N)[C@H](N)C[C@@H]1O` [TOBRAMYCIN] the value was > 16 µg/mL.
Same read-out and setting: for GENTAMICIN the value was 8 µg/mL; for POLYMYXIN B, 1 µg/mL.
